Patent US10221172B2, “Benzothiazole and benzisothiazole-substituted compounds as mGluR4 allosteric potentiators, compositions, and methods of treating neurological dysfunction” (Vanderbilt University, priority 2015, dated 2019)

Target: human mGluR4 (Homo sapiens (Human), UniProt Q14833)
Experiment: mGluR4 potentiation assay, CHO cells transfected with human mGluR4, Ca2+-sensitive dye, EC20 agonist
Format: cell-based
Settings: potentiation of mGluR4
Protocol: The disclosed compounds and compositions can be evaluated for their ability to act as a potentiator of metabotropic glutamate receptor activity, in particular mGluR4 activity, by any suitable known methodology known in the art. For example, Chinese Hamster Ovary (CHO) cells transfected with human mGluR4 or HEK cells co-transfected with rat mGluR4 and the G-protein regulated Inwardly Rectifying Potassium channel (GIRK) were plated in clear bottom assay plates for assay in a Hamamatsu FDSS Fluorometric Plate Reader. The cells were loaded with either a Ca2+-sensitive fluorescent dye or the thallium responsive dye and the plates were washed and placed into a suitable kinetic plate reader. For human mGluR4 assays, a fluorescence baseline was established for 3-5 seconds, the disclosed compounds were then added to the cells, and the response in cells was measured. Approximately two and a half minutes later, a concentration of mGluR4 orthosteric agonist (e.g. glutamate or L-AP4) eliciting approximately 20% (EC20) of the maximal agonist response was added to the cells, and the response was measured. Two minutes later, a concentration of mGluR4 agonist (e.g. glutamate or L-AP4) eliciting 80% (EC80) of the maximal agonist response was added to the cells, and the response was measured. For rat mGluR4/GIRK experiments, a baseline was established for approximately five seconds, disclosed compounds were added, and either an EC20 or EC80 concentration of agonist was added approximately two and one half minutes later. Potentiation of the agonist response of mGluR4 by the disclosed compounds was observed as an increase in response to the EC20 concentration of agonist in the presence of compound compared to the response to agonist in the absence of compound. Similarly, antagonism of the agonist response of mGluR4 by the disclosed compounds was observed as a decrease in response to the EC80 concentration of agonist in the presence of compound compared to the response to agonist in the absence of compound.
The above described assay operated in two modes. In the first mode, a range of concentrations of the disclosed compounds are added to cells, followed by a single fixed concentration of agonist. If the compound acts as a potentiatior, an EC50 value for potentiation and a maximum extent of potentiation by the compound at this concentration of agonist is determined by non-linear curve fitting. If the compound acts as a noncompetitive antagonist, an IC50 value is determined by non-linear curve fitting. In the second mode, several fixed concentrations of the disclosed compounds are added to various wells on a plate, followed by a range in concentrations of agonist for each concentration of disclosed compound. The EC50 values for the agonist at each concentration of compound are determined by non-linear curve fitting. A decrease in the EC50 value of the agonist with increasing concentrations of the sample compound (a leftward shift of the agonist concentration-response curve) is an indication of the degree of mGluR4 potentiation at a given concentration of the sample compound. A decrease in the maximal response of the agonist with increasing concentrations of the sample compounds, with or without a rightward shift in agonist potency, is an indication of the degree of noncompetitive antagonism at mGluR4. The second mode also indicates whether the sample compounds also affect the maximum response to mGluR4 to agonists.

[1] = main compound table, species not given
[2] = summary list repeated at the end of the table, species not stated

human mGluR4, sequence (Q14833 33-912): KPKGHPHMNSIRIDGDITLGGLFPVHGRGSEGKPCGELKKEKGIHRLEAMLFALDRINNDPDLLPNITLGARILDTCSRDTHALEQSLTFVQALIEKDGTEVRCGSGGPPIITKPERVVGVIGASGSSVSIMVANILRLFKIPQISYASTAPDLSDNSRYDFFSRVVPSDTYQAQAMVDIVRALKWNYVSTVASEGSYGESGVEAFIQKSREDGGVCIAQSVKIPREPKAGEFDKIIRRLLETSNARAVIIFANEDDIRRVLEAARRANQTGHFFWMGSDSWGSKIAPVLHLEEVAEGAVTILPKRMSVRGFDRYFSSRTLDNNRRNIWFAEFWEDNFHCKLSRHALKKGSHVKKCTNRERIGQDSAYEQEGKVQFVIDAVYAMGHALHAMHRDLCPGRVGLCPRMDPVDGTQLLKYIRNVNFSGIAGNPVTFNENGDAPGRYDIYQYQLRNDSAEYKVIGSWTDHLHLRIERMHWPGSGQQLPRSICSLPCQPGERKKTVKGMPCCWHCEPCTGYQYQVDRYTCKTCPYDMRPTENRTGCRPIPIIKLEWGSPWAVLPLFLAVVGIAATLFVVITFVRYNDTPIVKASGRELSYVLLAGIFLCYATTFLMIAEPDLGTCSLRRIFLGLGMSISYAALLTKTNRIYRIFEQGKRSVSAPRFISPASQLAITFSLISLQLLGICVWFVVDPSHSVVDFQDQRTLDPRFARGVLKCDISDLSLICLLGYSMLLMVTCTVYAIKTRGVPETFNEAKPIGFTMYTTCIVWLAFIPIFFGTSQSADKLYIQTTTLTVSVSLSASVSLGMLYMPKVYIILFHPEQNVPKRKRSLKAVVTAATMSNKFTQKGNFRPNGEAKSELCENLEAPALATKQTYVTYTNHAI

| EC50 [1] | EC50 [2] | Compound |
| --- | --- | --- |
| 81.1 nM | 81.1 nM | FC1(F)CCN(Cc2nsc3cc(Nc4n[nH]c5cccnc45)cnc23)CC1 [Example 50, 3-((4,4-difluoropiperidin-1-yl)methyl)-N-(1H-pyrazolo[4,3-b]pyridin-3-yl) isothiazolo[4,5-b]pyridin-6-amine] |
| 233 nM | 233 nM | O=C(c1nsc2cc(Nc3n[nH]c4cccnc34)ccc12)N1CCCC(F)(F)C1 [Example 9, (6-((1H-pyrazolo [4,3-b]pyridin-3-yl)amino)benzo[d]isothiazol-3-yl) (3,3-difluoropiperidin-1-yl)methanone] |
| 55.9 nM | 55.9 nM | FC1(F)CCCN(Cc2nsc3cc(Nc4n[nH]c5cccnc45)cnc23)C1 [Example 61, 3-((3,3-difluoropiperidin-1-yl)methyl)-N-(1H-pyrazolo[4,3-b]pyridin-3-yl)isothiazolo[4,5-b] pyridin-6-amine] |

Second part, the compound before the results:

| Compound | EC50 [1] | EC50 [2] |
| --- | --- | --- |
| O=C(c1nsc2cc(Nc3n[nH]c4nccnc34)ccc12)N1CCC(F)(F)CC1 [Example 33, (6-((1H-pyrazolo[3,4-b]pyrazin-3-yl)amino)benzo[d]isothiazol-3-yl)(4,4-difluoropiperidin-1-yl) methanone] | 827 nM | 827 nM |
| CC(=O)N1CCC(c2nsc3cc(Nc4n[nH]c5ncccc45)ccc23)CC1 [Example 64, 1-(4-(6-((1H-pyrazolo[3,4-b]pyridin-3-yl)amino)benzo[d]isothiazol-3-yl)piperidin-1-yl)ethan-1-one] | 409 nM | 409 nM |
| CC(C)(C)Cc1nsc2cc(Nc3n[nH]c4cccnc34)ccc12 [Example 2, 3-neopentyl-N-(1H-pyrazolo[4,3-b]pyridin-3-yl)benzo[d] isothiazol-6-amine] | 284 nM | 284 nM |
| O=C(c1nsc2cc(Nc3n[nH]c4cccnc34)ccc12)N1CCCC1c1ccccn1 (centres unmarked) [Example 11, (6-((1H-pyrazolo [4,3-b]pyridin-3-yl)amino)benzo[d]isothiazol-3-yl)(2-(pyridin-2-yl)pyrrolidin-1-yl) methanone] | > 10000 nM | > 10000 nM |
